Test results taken from patent publication US8309718B2, “4-pyrazolyl-N-arylpyrimidin-2-amines and 4-pyrazolyl-N-heteroarylpyrimidin-2-amines as janus kinase inhibitors” (Incyte Corporation, priority 2007, dated 2012).

The compounds below were run against T1, human JAK2 (Homo sapiens, UniProt O60674) (assay: In vitro JAK kinase assay (HTRF, phosphorylation of biotinylated peptide)). Conditions: catalytic domain a.a. 828-1132, 30 μM ATP, 500 nM peptide, room temperature 1 hr; read-out: JAK-2 IC50.
T1 construct: JAK2 (a.a. 828-1132); His tag (N); made in house; host or cells: insect cells (baculovirus)
Assay type: biochemical
Outline: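 IC50 from HTRF detection (Eu-Py20 antibody, SA-APC) of biotinylated-peptide phosphorylation (500 nM), run 1 h at RT. Enzyme: N-His human JAK2 kinase domain a.a. 828-1132 from insect cells; ATP 30 μM; buffer 50 mM Tris pH 7.8 with NaCl, DTT, BSA.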

T1 sequence (O60674 828-1132): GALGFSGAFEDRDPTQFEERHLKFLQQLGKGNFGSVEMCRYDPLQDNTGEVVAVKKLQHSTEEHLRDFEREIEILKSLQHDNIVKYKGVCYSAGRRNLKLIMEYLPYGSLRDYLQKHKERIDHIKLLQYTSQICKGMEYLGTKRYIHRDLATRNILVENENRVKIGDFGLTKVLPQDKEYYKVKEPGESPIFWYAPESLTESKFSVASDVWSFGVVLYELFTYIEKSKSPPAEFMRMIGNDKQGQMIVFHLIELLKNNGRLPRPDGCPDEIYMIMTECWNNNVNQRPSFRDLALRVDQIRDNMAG

IC50, < 0.1 µM:
COc1cnc(Nc2cccc(-c3cnco3)c2)nc1-c1cnn(C(CC#N)C2CC2)c1 (racemic) [Example 320, 3-cyclopropyl-3-[4-(5-methoxy-2-{[3-(1,3-oxazol-5-yl)phenyl]amino}pyrimidin-4-yl)-1H-pyrazol-1-yl]propanenitrile]
N#CCC(C1CCCC1)n1cc(-c2ccnc(Nc3ccc(N4CCOCC4=O)cc3)n2)cn1 (racemic) [Example 98, 3-cyclopentyl-3-(4-(2-(4-(3-oxomorpholino)phenylamino)pyrimidin-4-yl)-1H-pyrazol-1-yl)propanenitrile]
COC1CCN(C(=O)c2ccc(Nc3nccc(-c4cnn(C(CC#N)C5CCCC5)c4)n3)cc2)CC1 (racemic) [Example 221, 3-cyclopentyl-3-(4-(2-(4-(4-methoxypiperidine-1-carbonyl)phenylamino)pyrimidin-4-yl)-1H-pyrazol-1-yl)propanenitrile]
CCS(=O)(=O)N1CC(CC#N)(n2cc(-c3ccnc(Nc4ccc(C(=O)N5[C@@H]6CC[C@H]5C[C@@H](O)C6)cc4)n3)cn2)C1 [Example 257, 2-(1-(ethylsulfonyl)-3-(4-(2-(4-((3-endo)-3-hydroxy-8-azabicyclo[3.2.1]octane-8-carbonyl)phenylamino)pyrimidin-4-yl)-1H-pyrazol-1-yl)azetidin-3-yl)acetonitrile]
N#CCC(C1CCCC1)n1cc(-c2ccnc(Nc3cccc(C(=O)NCc4cccnc4)c3)n2)cn1 (racemic) [Example 146, 3-(4-(1-(2-cyano-1-cyclopentylethyl)-1H-pyrazol-4-yl)pyrimidin-2-ylamino)-N-(pyridin-3-ylmethyl)benzamide]
N#CCC(C1CCCC1)n1cc(-c2ccnc(Nc3ccc(N4CCCOC4=O)cc3)n2)cn1 (racemic) [Example 106, 3-cyclopentyl-3-(4-(2-(4-(2-oxo-1,3-oxazinan-3-yl)phenylamino)pyrimidin-4-yl)-1H-pyrazol-1-yl)propanenitrile]
CN(C)C1CCN(C(=O)c2ccc(Nc3nccc(-c4cnn(C(CC#N)C5CC5)c4)n3)cc2)C1 (mixture of isomers) [Example 270, 3-cyclopropyl-3-(4-(2-(4-(3-(dimethylamino)pyrrolidine-1-carbonyl)phenylamino)pyrimidin-4-yl)-1H-pyrazol-1-yl)propanenitrile]
CCS(=O)(=O)N1CC(CC#N)(n2cc(-c3ccnc(Nc4ccc(C(=O)N5CC[C@@H](C#N)C5)cc4)n3)cn2)C1 [Example 276, (R)-1-(4-(4-(1-(3-(cyanomethyl)-1-(ethylsulfonyl)azetidin-3-yl)-1H-pyrazol-4-yl)pyrimidin-2-ylamino)benzoyl)pyrrolidine-3-carbonitrile]
COc1cnc(Nc2cccnc2)nc1-c1cnn(C(CC#N)CC2CCN(C(=O)c3ccc(F)cc3F)CC2)c1 (racemic) [Example 347, 4-[1-(2,4-difluorobenzoyl)piperidin-4-yl]-3-{4-[5-methoxy-2-(pyridin-3-ylamino)pyrimidin-4-yl]-1H-pyrazol-1-yl}butanenitrile]
N#CCC(C1CCCC1)n1cc(-c2ccnc(Nc3cccc(C(=O)N4CCNC(=O)C4)c3)n2)cn1 (racemic) [Example 140, 3-cyclopentyl-3-(4-(2-(3-(3-oxopiperazine-1-carbonyl)phenylamino)pyrimidin-4-yl)-1H-pyrazol-1-yl)propanenitrile]
CC(=O)Nc1ccc(Nc2nccc(-c3cnn(C(CC#N)CC4CCN(S(=O)(=O)c5ccn(C)n5)CC4)c3)n2)cc1 (racemic) [Example 45, N-(4-(4-(1-(1-cyano-3-(1-(1-methyl-1H-pyrazol-3-ylsulfonyl)piperidin-4-yl)propan-2-yl)-1H-pyrazol-4-yl)pyrimidin-2-ylamino)phenyl)acetamide]
N#CCC(C1CCCC1)n1cc(-c2ccnc(Nc3ccc(C(=O)N4CCCC4)cc3)n2)cn1 (racemic) [Example 122, 3-cyclopentyl-3-(4-(2-(4-(pyrrolidine-1-carbonyl)phenylamino)pyrimidin-4-yl)-1H-pyrazol-1-yl)propanenitrile]
COc1cnc(Nc2ccc(-c3cnco3)cc2)nc1-c1cnn(C(CC#N)C2CCCC2)c1 (racemic) [Example 131, 3-cyclopentyl-3-(4-(5-methoxy-2-(4-(oxazol-5-yl)phenylamino)pyrimidin-4-yl)-1H-pyrazol-1-yl)propanenitrile]
N#CCC(C1CC1)n1cc(-c2ccnc(Nc3ccc(C(=O)N4CCCC4)cc3)n2)cn1 (racemic) [Example 253, 3-cyclopropyl-3-(4-(2-(4-(pyrrolidine-1-carbonyl)phenylamino)pyrimidin-4-yl)-1H-pyrazol-1-yl)propanenitrile]
CC(=O)Nc1cccc(Nc2nccc(-c3cnn(C(CC#N)C4CCCC4)c3)n2)c1 (racemic) [Example 117, N-(3-(4-(1-(2-cyano-1-cyclopentylethyl)-1H-pyrazol-4-yl)pyrimidin-2-ylamino)phenyl)acetamide]
CCS(=O)(=O)N1CCC(CC(CC#N)n2cc(-c3ccnc(Nc4ccc(N5CCOCC5=O)cc4)n3)cn2)CC1 (racemic) [Example 96, 4-(1-(ethylsulfonyl)piperidin-4-yl)-3-(4-(2-(4-(3-oxomorpholino)phenylamino)pyrimidin-4-yl)-1H-pyrazol-1-yl)butanenitrile]
N#CCC1(n2cc(-c3ccnc(Nc4ccc(N5CCOCC5)cc4)n3)cn2)CC(C#N)C1 (single isomer, unassigned) [Example 248, 3-(cyanomethyl)-3-(4-(2-(4-morpholinophenylamino)pyrimidin-4-yl)-1H-pyrazol-1-yl)cyclobutanecarbonitrile]
N#CCC(C1CC1)n1cc(-c2ccnc(Nc3ccc(C(=O)NC4CCOCC4)cc3)n2)cn1 (racemic) [Example 254, 4-(4-(1-(2-cyano-1-cyclopropylethyl)-1H-pyrazol-4-yl)pyrimidin-2-ylamino)-N-(tetrahydro-2H-pyran-4-yl)benzamide]
COc1ccccc1CNC(=O)c1cccc(Nc2nccc(-c3cnn(C(CC#N)C4CCCC4)c3)n2)c1 (racemic) [Example 163, 3-(4-(1-(2-cyano-1-cyclopentylethyl)-1H-pyrazol-4-yl)pyrimidin-2-ylamino)-N-(2-methoxybenzyl)benzamide]
CN(C(=O)c1ccc(Nc2nccc(-c3cnn(C(CC#N)C4CCCC4)c3)n2)cc1)[C@H]1CC[C@@H](O)CC1 (mixture of isomers) [Example 217, 4-(4-(1-(2-cyano-1-cyclopentylethyl)-1H-pyrazol-4-yl)pyrimidin-2-ylamino)-N-(cis-4-hydroxycyclohexyl)-N-methylbenzamide]
N#CCC(C1CCCC1)n1cc(-c2ccnc(Nc3ccc(OCCN4CCCC4)cc3)n2)cn1 (racemic) [Example 306, 3-cyclopentyl-3-[4-(2-{[4-(2-pyrrolidin-1-ylethoxy)phenyl]amino}pyrimidin-4-yl)-1H-pyrazol-1-yl]propanenitrile]
Cc1cccc(S(=O)(=O)Nc2ccc(Nc3nccc(-c4cnn(C(CC#N)C5CCCC5)c4)n3)cc2)n1 (racemic) [Example 194, N-(4-(4-(1-(2-cyano-1-cyclopentylethyl)-1H-pyrazol-4-yl)pyrimidin-2-ylamino)phenyl)-6-methylpyridine-2-sulfonamide]
N#CCC(CC1CCN(C(=O)c2ccc(F)cc2F)CC1)n1cc(-c2ccnc(Nc3ccc(N4CCOCC4)cc3)n2)cn1 (racemic) [Example 5, 4-(1-(2,4-difluorobenzoyl)piperidin-4-yl)-3-(4-(2-(4-morpholinophenylamino)pyrimidin-4-yl)-1H-pyrazol-1-yl)butanenitrile]
N#CCC(C1CCCC1)n1cc(-c2ccnc(Nc3ccc(C(=O)N4CCC5(CC4)CNC(=O)C5)cc3)n2)cn1 (racemic) [Example 228, 3-cyclopentyl-3-(4-(2-(4-(3-oxo-2,8-diazaspiro[4.5]decane-8-carbonyl)phenylamino)pyrimidin-4-yl)-1H-pyrazol-1-yl)propanenitrile]
Cc1cc(CNC(=O)c2cccc(Nc3nccc(-c4cnn(C(CC#N)C5CCCC5)c4)n3)c2)no1 (racemic) [Example 148, 3-(4-(1-(2-cyano-1-cyclopentylethyl)-1H-pyrazol-4-yl)pyrimidin-2-ylamino)-N-((5-methylisoxazol-3-yl)methyl)benzamide]
N#CCC(C1CCCC1)n1cc(-c2ccnc(Nc3cccc(C(=O)NC4(CO)CCCC4)c3)n2)cn1 (racemic) [Example 165, 3-(4-(1-(2-cyano-1-cyclopentylethyl)-1H-pyrazol-4-yl)pyrimidin-2-ylamino)-N-(1-(hydroxymethyl)cyclopentyl)benzamide]
CNC(=O)c1ccc(Nc2ncc(C)c(-c3cnn(C(CC#N)C4CCCC4)c3)n2)cc1 (racemic) [Example 86, 4-(4-(1-(2-cyano-1-cyclopentylethyl)-1H-pyrazol-4-yl)-5-methylpyrimidin-2-ylamino)-N-methylbenzamide]
CCS(=O)(=O)N1CC(CC#N)(n2cc(-c3ccnc(Nc4ccc(C(=O)N5CC[C@@H](O)C5)cc4)n3)cn2)C1 [Example 278, (R)-2-(1-(ethylsulfonyl)-3-(4-(2-(4-(3-hydroxypyrrolidine-1-carbonyl)phenylamino)pyrimidin-4-yl)-1H-pyrazol-1-yl)azetidin-3-yl)acetonitrile]
N#CCC(C1CCCC1)n1cc(-c2ccnc(Nc3ccc(NC(=O)c4cc(F)cc(F)c4)cc3)n2)cn1 (racemic) [Example 185, N-(4-(4-(1-(2-cyano-1-cyclopentylethyl)-1H-pyrazol-4-yl)pyrimidin-2-ylamino)phenyl)-3,5-difluorobenzamide]
